Consider two compounds from PMC7253177, “Gain of channel function and modified gating properties in TRPM3 mutants causing intellectual disability and epilepsy” (eLife, 2020).

This assay deals with T1, TRPM3 P1090Q mutant (Homo sapiens, UniProt Q9HCF6, P1115Q).
T1 sequence (Q9HCF6 1-1325 isoform Q9HCF6-10 P1090Q): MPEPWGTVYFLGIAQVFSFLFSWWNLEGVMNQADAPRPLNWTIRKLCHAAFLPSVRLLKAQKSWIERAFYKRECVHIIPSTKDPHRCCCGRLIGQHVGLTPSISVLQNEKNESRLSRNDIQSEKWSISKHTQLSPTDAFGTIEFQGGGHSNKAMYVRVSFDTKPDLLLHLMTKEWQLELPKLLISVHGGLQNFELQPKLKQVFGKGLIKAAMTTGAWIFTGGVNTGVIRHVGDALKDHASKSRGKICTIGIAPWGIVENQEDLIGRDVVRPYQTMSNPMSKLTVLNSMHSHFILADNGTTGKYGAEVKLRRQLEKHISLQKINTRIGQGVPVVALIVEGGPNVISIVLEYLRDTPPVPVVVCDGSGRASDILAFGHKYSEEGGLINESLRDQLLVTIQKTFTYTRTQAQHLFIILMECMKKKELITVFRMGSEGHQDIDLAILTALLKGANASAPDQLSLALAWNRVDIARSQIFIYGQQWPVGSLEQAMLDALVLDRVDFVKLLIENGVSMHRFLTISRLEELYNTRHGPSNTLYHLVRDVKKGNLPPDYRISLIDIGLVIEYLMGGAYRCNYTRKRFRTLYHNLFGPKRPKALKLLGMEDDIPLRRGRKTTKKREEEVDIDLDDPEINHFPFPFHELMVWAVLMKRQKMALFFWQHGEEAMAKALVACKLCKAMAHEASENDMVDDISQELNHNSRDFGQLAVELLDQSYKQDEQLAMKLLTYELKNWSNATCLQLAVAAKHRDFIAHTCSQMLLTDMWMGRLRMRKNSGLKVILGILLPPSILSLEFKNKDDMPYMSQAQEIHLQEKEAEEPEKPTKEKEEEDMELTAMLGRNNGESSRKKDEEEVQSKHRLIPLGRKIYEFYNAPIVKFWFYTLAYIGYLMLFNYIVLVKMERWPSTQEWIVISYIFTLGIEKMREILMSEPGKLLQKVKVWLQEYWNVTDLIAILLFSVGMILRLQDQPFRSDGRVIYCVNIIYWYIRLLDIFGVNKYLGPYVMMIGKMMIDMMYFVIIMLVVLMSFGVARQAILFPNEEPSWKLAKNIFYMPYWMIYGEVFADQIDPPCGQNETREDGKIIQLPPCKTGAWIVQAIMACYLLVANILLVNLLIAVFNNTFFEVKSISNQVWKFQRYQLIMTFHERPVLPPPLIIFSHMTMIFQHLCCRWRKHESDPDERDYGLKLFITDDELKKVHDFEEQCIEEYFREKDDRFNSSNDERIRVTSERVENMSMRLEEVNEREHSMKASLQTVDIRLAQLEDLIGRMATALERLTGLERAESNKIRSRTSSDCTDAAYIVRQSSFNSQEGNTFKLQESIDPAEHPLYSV
The method, then:
HEK293T cells ([Graham et al., 1977]) were cultured as described previously ([Vriens et al., 2007]) and used up in passage number 14. HEK293T cells were tested for the lack of mycoplasma and transiently transfected with 2 µg of DNA using TransIT transfection reagent (Mirus) 36–48 hr before the measurements. In case of co-cultures a ratio of 1:1 between hTRPM3-YFP WT and mutants-YFP DNA was used.
All mutants were obtained by the standard PCR overlap extension method using hTRPM3 directly linked to YFP from pCAGGS/IRES-GFP vector ([Vriens et al., 2007]). Accuracy of all mutant sequences was verified by sequencing of the entire DNA constructs.
Standard whole-cell patch-clamp recordings were performed with an EPC-10 amplifier and the PatchMasterPro Software (HEKA Elektronik, Lambrecht, Germany). Current measurements were performed at a sampling rate of 20 kHz and currents were digitally filtered at 2.9 kHz. In all measurements, 70% of the series resistance was compensated. The standard internal solution contained (in mM): 100 CsAsp, 45 CsCl, 10 EGTA, 10 HEPES, 1 MgCl2 (pH 7.2 with CsOH) or 140 potassium gluconate, 5 EGTA, 1 MgCl2, 10 HEPES and 2 NaATP (pH 7.3 with CsOH) for the measurements of Gβγ mediated inhibition and the standard extracellular solution contained (in mM): 150 NaCl, 1 MgCl2, 10 HEPES (pH 7.4 with NaOH). The standard patch pipette resistance was between 2 MΩ and 4 MΩ when filled with pipette solution. In experiments allowing Ca^2+-dependent desensitization of TRPM3, Mg^2+ was replaced by Ca^2+ in the extracellular solution, and Cs^+ was replaced by Na^+ in the pipette solution. […] The chemical ligands were dissolved in bath solution from a stock diluted in DMSO.

Consider `Clc1ccccc1C(c1ccccc1)(c1ccccc1)n1ccnc1` [Clt, clotrimazole], for which the “Activation of whole-cell currents in the absence of PS” value (Clt 10 µM) is recorded as “did not activate currents”. For the same compound, the “Effect on the response to PS (whole-cell currents)” value (Clt 10 µM, PS 40 µM) is on record as “inhibited the response to PS”.
On to `CCC1(c2ccccc2)C(=O)NCNC1=O` [primidone], for which, where the note is “primidone 25 µM, PS 40 µM, ±80 mV, cells co-expressing µ-opioid receptor”, the “Inhibition of PS-activated inward and outward currents” value is “full inhibition”.
